In patent US11377442B2, “Small molecule agonists and antagonists of NR2F6 activity” (ZANDER THERAPEUTICS, INC., priority 2016, dated 2022):
“And” between values parts separate entries of the source, which are not always exact repeats. Identical values can stand only once. Like-named read-outs stand apart in the source and are kept apart here.

Experiments:
Format in all cases: cell-based
[1] = target: T1, NR2F6 (Homo sapiens, UniProt P10588); assay: NR2F6 agonist screening, Firefly signal cmpd/DMSO
T1 construct: expressed in transfected cells; also transient transfection
T1 sequence (P10588 1-404): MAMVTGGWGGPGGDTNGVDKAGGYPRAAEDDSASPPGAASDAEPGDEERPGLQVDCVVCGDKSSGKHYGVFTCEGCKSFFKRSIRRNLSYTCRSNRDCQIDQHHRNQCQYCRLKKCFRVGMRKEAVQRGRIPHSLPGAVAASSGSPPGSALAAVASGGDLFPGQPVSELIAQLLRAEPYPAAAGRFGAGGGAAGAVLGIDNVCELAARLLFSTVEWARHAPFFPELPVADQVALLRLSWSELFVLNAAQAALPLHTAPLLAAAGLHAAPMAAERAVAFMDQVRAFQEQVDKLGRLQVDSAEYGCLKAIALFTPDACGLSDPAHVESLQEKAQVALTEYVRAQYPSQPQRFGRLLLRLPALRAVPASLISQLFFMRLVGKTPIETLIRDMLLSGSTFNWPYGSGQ

[2] = target: T2, NR2F6 LBD (Homo sapiens, UniProt P10588); assay: NR2F6 LBD transient transfection
T2 construct: expressed in transfected cells
T2 sequence (P10588 165-393 limits assumed): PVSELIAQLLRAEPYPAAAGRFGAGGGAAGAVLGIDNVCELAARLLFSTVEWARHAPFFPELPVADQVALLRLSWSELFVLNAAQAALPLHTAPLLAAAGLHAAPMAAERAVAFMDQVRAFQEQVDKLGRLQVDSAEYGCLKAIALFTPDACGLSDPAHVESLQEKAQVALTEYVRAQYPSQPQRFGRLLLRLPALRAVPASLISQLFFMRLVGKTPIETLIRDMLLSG
Summary of the method: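 LBD-transfected cells treated at 40, 10, 2 and 0.5 μM (4 replicates); cytotoxicity measured in parallel, normalized to DMSO (0%) and zero signal (100%). Higher concentrations excluded where signal loss reflected toxicity.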

[3] = system: HEK293 pGL4; assay: Firefly_pGL signal, cmpd/DMSO (pGL4 control cells); settings: Homo sapiens
[4] = system: Renilla; assay: Renilla signal in NR2F6 agonist screening, cmpd/DMSO; settings: Renilla
[5] = system: Renilla; assay: Renilla signal, LBD, cmpd/DMSO (NR2F6 LBD transfected cells)
[6] = HEK293, 0.5 uM, read-out: Firefly pGL4, cmpd/DMSO (mean)
[7] = HEK293, 2 uM, read-out: Firefly pGL4, cmpd/DMSO (mean)
[8] = HEK293, 10 uM, read-out: Firefly pGL4, cmpd/DMSO (mean)
[9] = HEK293, 40 uM, read-out: Firefly pGL4, cmpd/DMSO (mean)
[10] = HEK293, pGL4, 1% FBS, 0.5 uM, read-out: Firefly, pGL4, 1% FBS, cmpd/DMSO (mean)
[11] = HEK293, pGL4, 1% FBS, 2 uM, read-out: Firefly, pGL4, 1% FBS, cmpd/DMSO (mean)
[12] = HEK293, pGL4, 1% FBS, 10 uM, read-out: Firefly, pGL4, 1% FBS, cmpd/DMSO (mean)
[13] = HEK293, pGL4, 1% FBS, 40 uM, read-out: Firefly, pGL4, 1% FBS, cmpd/DMSO (mean)
[14] = HEK293, pGL4, 10% FBS, 0.5 uM, read-out: Firefly, pGL4, 10% FBS, cmpd/DMSO (mean)
[15] = HEK293, pGL4, 10% FBS, 2 uM, read-out: Firefly, pGL4, 10% FBS, cmpd/DMSO (mean)
[16] = HEK293, pGL4, 10% FBS, 10 uM, read-out: Firefly, pGL4, 10% FBS, cmpd/DMSO (mean)
[17] = HEK293, pGL4, 10% FBS, 40 uM, read-out: Firefly, pGL4, 10% FBS, cmpd/DMSO (mean)
[18] = read-out: Renilla F4, cmpd/DMSO (mean)
[19] = F4, read-out: Renilla, F4, cmpd/DMSO (mean)
[20] = F4, 1% FBS, read-out: Renilla, F4, 1% FBS, cmpd/DMSO (mean)
[21] = F4, 10% FBS, read-out: Renilla, F4, 10% FBS, cmpd/DMSO (mean)

O=S1(=O)C[C@H](N2CCCC2)[C@@H](S(=O)(=O)c2cccs2)C1 [Compound D104]
Firefly F4, cmpd/DMSO (mean) ([1]; 0.5 uM): 2.1 | Firefly F4, cmpd/DMSO (mean) ([1]; 0.5 uM, F4): 1.7 | Firefly F4, cmpd/DMSO (mean) ([1]; 2 uM): 4.5 | Firefly F4, cmpd/DMSO (mean) ([1]; 2 uM, F4): 2.4 | Firefly F4, cmpd/DMSO (mean) ([1]; 10 uM): 4.3 | Firefly F4, cmpd/DMSO (mean) ([1]; 10 uM, F4): 6.2 | Firefly F4, cmpd/DMSO (mean) ([1]; 40 uM): 1.0 | Firefly F4, cmpd/DMSO (mean) ([1]; 40 uM, F4): 0.8 | F4, Firefly/Renilla for S/B(F4) > 3 ([1]; 1% FBS, 10 uM): 3.5 and 2.6 | F4, Firefly/Renilla for S/B(F4) > 3 ([1]; 10% FBS, 10 uM): 4.5 and 4.9 | Firefly, F4/pGL4 for S/B(F4) > 3 ([1]; 10% FBS, 10 uM): 4.2 and 4.3 | Firefly, F4, 1% FBS, cmpd/DMSO (mean) ([1]; F4, 1% FBS, 0.5 uM): 0.9 | Firefly, F4, 1% FBS, cmpd/DMSO (mean) ([1]; F4, 1% FBS, 2 uM): 1.9 and 1.6 | Firefly, F4, 1% FBS, cmpd/DMSO (mean) ([1]; F4, 1% FBS, 10 uM): 8.5 and 5.1 | Firefly, F4, 1% FBS, cmpd/DMSO (mean) ([1]; F4, 1% FBS, 40 uM): 0.7 and 0.4 | Firefly, F4, 10% FBS, cmpd/DMSO (mean) ([1]; F4, 10% FBS, 0.5 uM): 0.8 and 1.3 | Firefly, F4, 10% FBS, cmpd/DMSO (mean) ([1]; F4, 10% FBS, 2 uM): 1.4 and 1.5 | Firefly, F4, 10% FBS, cmpd/DMSO (mean) ([1]; F4, 10% FBS, 10 uM): 11 and 13 | Firefly, F4, 10% FBS, cmpd/DMSO (mean) ([1]; F4, 10% FBS, 40 uM): 1.4 and 1.0 | Activity, cmpd/DMSO ([1]; Table 31): 7.1 | Firefly LBD, cmpd/DMSO (mean) ([2]; 0.5 uM): 1.3 | Firefly LBD, cmpd/DMSO (mean) ([2]; 0.5 uM, LBD): 1.3 | Firefly LBD, cmpd/DMSO (mean) ([2]; 2 uM): 2.9 | Firefly LBD, cmpd/DMSO (mean) ([2]; 2 uM, LBD): 1.7 | Firefly LBD, cmpd/DMSO (mean) ([2]; 10 uM): 1.2 | Firefly LBD, cmpd/DMSO (mean) ([2]; 10 uM, LBD): 3.3 | Firefly LBD, cmpd/DMSO (mean) ([2]; 40 uM): 0.2 | Firefly LBD, cmpd/DMSO (mean) ([2]; 40 uM, LBD): 0.6 | fold induction at 0.5 µM ([3]; HEK293, 0.5 uM, pGL4, read-out: Firefly pGL4, cmpd/DMSO (mean)): 1.3 | fold induction at 0.5 µM [3, 6]: 1.2 | fold induction at 2 µM ([3]; HEK293, 2 uM, pGL4, read-out: Firefly pGL4, cmpd/DMSO (mean)): 1.4 | fold induction at 2 µM [3, 7]: 1.8 | fold induction at 10 µM ([3]; HEK293, 10 uM, pGL4, read-out: Firefly pGL4, cmpd/DMSO (mean)): 4 | fold induction at 10 µM [3, 8]: 2.4 | fold induction at 40 µM ([3]; HEK293, 40 uM, pGL4, read-out: Firefly pGL4, cmpd/DMSO (mean)): 0.7 | fold induction at 40 µM [3, 9]: 0.7 | fold induction at 0.5 µM [3, 10]: 1 | fold induction at 2 µM [3, 11]: 1 | fold induction at 10 µM [3, 12]: 1.5 | fold induction at 40 µM [3, 13]: 0.6 | fold induction at 0.5 µM [3, 14]: 1.1 | fold induction at 2 µM [3, 15]: 1.7 | fold induction at 10 µM [3, 16]: 2.7 | fold induction at 40 µM [3, 17]: 0.5 | fold induction at 0.5 µM [4, 18]: 1.2 | fold induction at 2 µM [4, 18]: 2 | fold induction at 10 µM [4, 18]: 1.7 | fold induction at 40 µM [4, 18]: 0.3 | fold induction at 0.5 µM [4, 19]: 1.1 | fold induction at 2 µM [4, 19]: 1.2 | fold induction at 10 µM [4, 19]: 1.6 | fold induction at 40 µM [4, 19]: 0.3 | fold induction at 0.5 µM [4, 20]: 1.1 | fold induction at 2 µM [4, 20]: 1.4 | fold induction at 10 µM [4, 20]: 2.4 | fold induction at 40 µM [4, 20]: 1 | fold induction at 0.5 µM [4, 21]: 1 | fold induction at 2 µM [4, 21]: 1.3 | fold induction at 10 µM [4, 21]: 2.5 | fold induction at 40 µM [4, 21]: 2.2 | Renilla LBD, cmpd/DMSO (mean) ([5]; 0.5 uM): 1.1 | Renilla LBD, cmpd/DMSO (mean) ([5]; 2 uM): 1.1 | Renilla LBD, cmpd/DMSO (mean) ([5]; 10 uM): 0.6 | Renilla LBD, cmpd/DMSO (mean) ([5]; 40 uM): 0.2

O=S1(=O)C[C@H](NCCCc2ccccc2)[C@@H](S(=O)(=O)c2ccc(Cl)cc2)C1 [Compound D137]
Firefly F4, cmpd/DMSO (mean) ([1]; 0.5 uM): 1.1 | Firefly F4, cmpd/DMSO (mean) ([1]; 2 uM): 1.3 | Firefly F4, cmpd/DMSO (mean) ([1]; 10 uM): 2.0 | Firefly F4, cmpd/DMSO (mean) ([1]; 40 uM): 0.6 | F4, Firefly/Renilla for S/B(F4) > 3 ([1]; 1% FBS, 10 uM): 1.9 | Firefly, F4/pGL4 for S/B(F4) > 3 ([1]; 1% FBS, 10 uM): 2.7 | F4, Firefly/Renilla for S/B(F4) > 3 ([1]; 1% FBS, 40 uM): 1.0 | Firefly, F4/pGL4 for S/B(F4) > 3 ([1]; 1% FBS, 40 uM): 2.4 | F4, Firefly/Renilla for S/B(F4) > 3 ([1]; 10% FBS, 10 uM): 2.2 | Firefly, F4/pGL4 for S/B(F4) > 3 ([1]; 10% FBS, 10 uM): 2.2 | F4, Firefly/Renilla for S/B(F4) > 3 ([1]; 10% FBS, 40 uM): 3.3 | Firefly, F4/pGL4 for S/B(F4) > 3 ([1]; 10% FBS, 40 uM): 3.1 | Firefly, F4, 1% FBS, cmpd/DMSO (mean) ([1]; F4, 1% FBS, 0.5 uM): 1.2 | Firefly, F4, 1% FBS, cmpd/DMSO (mean) ([1]; F4, 1% FBS, 2 uM): 2.2 | Firefly, F4, 1% FBS, cmpd/DMSO (mean) ([1]; F4, 1% FBS, 10 uM): 3.9 | Firefly, F4, 1% FBS, cmpd/DMSO (mean) ([1]; F4, 1% FBS, 40 uM): 3.4 | Firefly, F4, 10% FBS, cmpd/DMSO (mean) ([1]; F4, 10% FBS, 0.5 uM): 0.9 | Firefly, F4, 10% FBS, cmpd/DMSO (mean) ([1]; F4, 10% FBS, 2 uM): 1.4 | Firefly, F4, 10% FBS, cmpd/DMSO (mean) ([1]; F4, 10% FBS, 10 uM): 4.6 | Firefly, F4, 10% FBS, cmpd/DMSO (mean) ([1]; F4, 10% FBS, 40 uM): 13 | Firefly LBD, cmpd/DMSO (mean) ([2]; 0.5 uM): 1.1 | Firefly LBD, cmpd/DMSO (mean) ([2]; 2 uM): 2.0 | Firefly LBD, cmpd/DMSO (mean) ([2]; 10 uM): 3.2 | Firefly LBD, cmpd/DMSO (mean) ([2]; 40 uM): 0.4 | fold induction at 0.5 µM [3, 6]: 0.8 | fold induction at 2 µM [3, 7]: 1.2 | fold induction at 10 µM [3, 8]: 1.5 | fold induction at 40 µM [3, 9]: 1.5 | fold induction at 0.5 µM [3, 10]: 1 | fold induction at 2 µM [3, 11]: 1 | fold induction at 10 µM [3, 12]: 1.5 | fold induction at 40 µM [3, 13]: 1.5 | fold induction at 0.5 µM [3, 14]: 0.7 | fold induction at 2 µM [3, 15]: 1.1 | fold induction at 10 µM [3, 16]: 2.1 | fold induction at 40 µM [3, 17]: 4.3 | fold induction at 0.5 µM [4, 18]: 1.1 | fold induction at 2 µM [4, 18]: 1.1 | fold induction at 10 µM [4, 18]: 1.8 | fold induction at 40 µM [4, 18]: 2.6 | fold induction at 0.5 µM [4, 20]: 1 | fold induction at 2 µM [4, 20]: 1.3 | fold induction at 10 µM [4, 20]: 2.1 | fold induction at 40 µM [4, 20]: 3.5 | fold induction at 0.5 µM [4, 21]: 1.2 | fold induction at 2 µM [4, 21]: 1.4 | fold induction at 10 µM [4, 21]: 2.1 | fold induction at 40 µM [4, 21]: 4 | Renilla LBD, cmpd/DMSO (mean) ([5]; 0.5 uM): 1.0 | Renilla LBD, cmpd/DMSO (mean) ([5]; 2 uM): 1.0 | Renilla LBD, cmpd/DMSO (mean) ([5]; 10 uM): 0.8 | Renilla LBD, cmpd/DMSO (mean) ([5]; 40 uM): 0.4
